Measured values published in patent US10266528B2, “2-oxo-imidazopyridines as reversible BTK inhibitors and uses thereof” (Merck Patent GmbH, priority 2016, dated 2019).

Legend:
full-length human BTK = full-length human BTK (Homo sapiens (Human), UniProt Q06187); assay: Microfluidic off-chip mobility shift kinase assay against BTK enzyme; type: biochemical; conditions: 90 min at 27° C.
Procedure: Example 23. Microfluidic Off-Chip Mobility Shift Assay Protocol for Potency Assessment Against BTK Enzyme
The protocol below describes microfluidic, off-chip mobility shift kinase assay to measure inherent potency of compounds against BTK enzyme.
5 uL of enzyme buffer and 7.5 uL of ATP/kinKDR peptide substrate mix were added to Matrix (#115304) 384-well, sterile, polypropylene plates (Thermo Fisher Scientific, Hudson, N.H.) with 125 nL of serially diluted compounds prepared in 100% DMSO, and incubated for 90 min. at 27° C. Following the incubation period, reactions were stopped by adding 60 uL stop buffer consisting of 100 mM HEPES, pH 7.5, 0.015% Brij-35 (30%), 0.277% Coating Reagent #3 (Caliper Life Sciences, Mountain View, Calif.), 5% DMSO. Stopped reactions were monitored at −2 PSI, −3000 V/−700 V in a LabChip 3000 plate reader from Caliper Life Sciences, a PerkinElmer Company (Hopkinton, Mass.), and the activity was measured by off-chip mobility shift assay measuring the charge/mass difference between substrate and product resulting from peptide phosphorilation. IC50 and efficacy were determined by plotting log [Inhibitor] vs. % Activity in GeneData Screener (Basel, Switzerland).

WB = WB IC50 (no method described); type: cell-based
[1] = test system: anti-IgM-induced expression of CD69 in human peripheral blood mononuclear cells (PBMCs); assay: PBMC IC50 assay: anti-IgM-induced CD69 expression on CD19 positive cells; type: cell-based; conditions: anti-IgM stimulation, CD69 expression on CD19 positive B cells
Procedure: Btk is critical for mediating the signalling of B cell antigen receptor (BCR) after anti-IgM stimulation. Based on this principle, a functional cell-based assay was established to determine the potency of compounds at inhibiting anti-IgM-induced expression of CD69, a downstream BCR signaling event, in freshly isolated human peripheral blood mononuclear cells (PBMCs). In the assay, a 90 μl PBMC suspension containing 2.5×10^5 cells was pre-treated with 10 μl of test compound at various concentrations for an hour, and then incubated overnight (approximately 16-18 hours) with 5 μl 420 μg/ml affiniPure F(ab′)2 fragment goat anti-human IgM Fc fragment per well (Dianova, Cat. No.: 109-006-129). After the incubation, the cells were washed and immunostained with an APC-labeled mouse anti-human CD69 (BD Biosciences; clone: FN50), a PerCP-Cy5.5 labelled mouse anti-human CD19 (BD Biosciences; clone: SJ25C1) and a FITC-labelled mouse anti-human CD3 (BD Biosciences; clone: HIT3a), and fixed for flow cytometric analysis of CD69 expression on CD19 positive cells (B cells). The percentage of CD69 expressing CD19 positive cells was plotted against the concentrations of test compounds to obtain a concentration response curve, and calculate an IC50 value as a measure of the potency of test compounds in the assay.

full-length human BTK, sequence (Q06187 whole entry): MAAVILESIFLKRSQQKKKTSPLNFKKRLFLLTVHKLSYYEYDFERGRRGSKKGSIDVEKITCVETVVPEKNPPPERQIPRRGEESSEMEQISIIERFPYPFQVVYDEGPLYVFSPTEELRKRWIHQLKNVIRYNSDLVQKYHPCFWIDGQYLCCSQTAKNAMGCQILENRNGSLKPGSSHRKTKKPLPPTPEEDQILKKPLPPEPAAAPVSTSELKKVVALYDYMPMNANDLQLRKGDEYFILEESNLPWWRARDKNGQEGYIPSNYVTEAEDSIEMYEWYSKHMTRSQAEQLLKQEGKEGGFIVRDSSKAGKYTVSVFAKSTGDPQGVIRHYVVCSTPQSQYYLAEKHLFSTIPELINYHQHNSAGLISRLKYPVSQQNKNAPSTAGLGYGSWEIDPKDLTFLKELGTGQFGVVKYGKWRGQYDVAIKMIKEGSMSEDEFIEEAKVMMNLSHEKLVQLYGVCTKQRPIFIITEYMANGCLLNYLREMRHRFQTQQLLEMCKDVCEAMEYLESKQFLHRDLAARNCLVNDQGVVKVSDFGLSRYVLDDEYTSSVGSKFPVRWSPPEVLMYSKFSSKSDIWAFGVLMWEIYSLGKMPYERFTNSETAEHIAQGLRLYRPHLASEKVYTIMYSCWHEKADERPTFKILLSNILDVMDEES

IC50 (full-length human BTK) [nM]	IC50 (WB) [nM]	Structure (SMILES)	IC50 ([1]; Homo sapiens, PBMC) [nM]	IC50 [1] [nM]
< 10	100 to 1000	CC(C)(C)c1noc(C(=O)NCc2ccc(-c3ccnc4[nH]c(=O)[nH]c34)cc2C(F)(F)F)n1 [Compound 1, 3-tert-Butyl-[1,2,4]oxadiazole-5-carboxylic Acid 4-(2-oxo-2,3-dihydro-1H-imidazo[4,5-b]pyridine-7-yl)-2-trifluoromethyl-benzylamide]	100 to 1000	
10 to 100		O=C(NCc1ccc(-c2ccnc3[nH]c(=O)[nH]c23)cc1F)NCC1CC2CCC1C2 (centres unmarked) [Compound 4, 1-Bicyclo[2.2.1]hept-2-ylmethyl-3-[2-fluoro-4-(2-oxo-2,3-dihydro-1H-imidazo[4,5-b]pyridin-7-yl)-benzyl]-urea]	> 1000	
10 to 100		CC(C)(C)c1nc(C(=O)NCc2ccc(-c3ccnc4[nH]c(=O)[nH]c34)cc2F)cs1 [Compound 6, 2-tert-Butyl-thiazole-4-carboxylic Acid 2-fluoro-4-(2-oxo-2,3-dihydro-1H-imidazo[4,5-b]pyridin-7-yl)-benzylamide]		
> 1000		CC(C)(C)c1noc(C(=O)NCc2ccc(-c3ccnc4[nH]c(=O)[nH]c34)c(CO)c2)n1 [Compound 10, 3-tert-Butyl-[1,2,4]oxadiazole-5-carboxylic Acid 3-hydroxymethyl-4-(2-oxo-2,3-dihydro-1H-imidazo[4,5-b]pyridin-7-yl)-benzylamide]		
10 to 100		CC(C)(C)c1noc(C(=O)NC2CCCc3cc(-c4ccnc5[nH]c(=O)[nH]c45)ccc32)n1 (centres unmarked) [Compound 15, 3-tert-Butyl-[1,2,4]oxadiazole-5-carboxylic Acid [6-(2-oxo-2,3-dihydro-1H-imidazo[4,5-b]pyridin-7-yl)-1,2,3,4-tetrahydro-naphthalen-1-yl]-amide]		
< 10		CC(C)(C)c1noc(C(=O)NCc2ccc(-c3ccnc4[nH]c(=O)[nH]c34)cc2C2CC2)n1 [Compound 17, 3-tert-Butyl-[1,2,4]oxadiazole-5-carboxylic Acid 2-cyclopropyl-4-(2-oxo-2,3-dihydro-1H-imidazo[4,5-b]pyridin-7-yl)-benzylamide]	100 to 1000	
< 10	100 to 1000	CC1(c2noc(C(=O)NCc3ccc(-c4ccnc5[nH]c(=O)[nH]c45)cc3C(F)(F)F)n2)CC1 [Compound 18, 3-(1-Methyl-cyclopropyl)-[1,2,4]oxadiazole-5-carboxylic Acid 4-(2-oxo-2,3-dihydro-1H-imidazo[4,5-b]pyridin-7-yl)-2-trifluoromethyl-benzylamide]	10 to 100	

The next lines start with the compound.

Structure (SMILES)	IC50 (full-length human BTK) [nM]	IC50 (WB) [nM]	IC50 ([1]; Homo sapiens, PBMC) [nM]	IC50 [1] [nM]
CC(C)(C)c1noc(C(=O)NC2CCCCc3cc(-c4ccnc5[nH]c(=O)[nH]c45)ccc32)n1 (single isomer, unassigned) [Compound 13, 3-tert-Butyl-[1,2,4]oxadiazole-5-carboxylic Acid [2-(2-oxo-2,3-dihydro-1H-imidazo[4,5-b]pyridin-7-yl)-6,7,8,9-tetrahydro-5H-benzocyclohepten-5-yl]-amide]	10 to 100			
CC(C)(C)c1noc(C(=O)NCc2ccc(-c3ccnc4[nH]c(=O)[nH]c34)cc2F)n1 [Compound 2, 3-tert-Butyl-[1,2,4]oxadiazole-5-carboxylic Acid 2-fluoro-4-(2-oxo-2,3-dihydro-1H-imidazo[4,5-b]pyridine-7-yl)-benzylamide]	< 10	100 to 1000	100 to 1000	
CC(C)(C)c1nc(C(=O)NCc2ccc(-c3ccnc4[nH]c(=O)[nH]c34)cc2F)no1 [Compound 3, 5-tert-Butyl-[1,2,4]oxadiazole-3-carboxylic Acid 2-fluoro-4-(2-oxo-2,3-dihydro-1H-imidazo[4,5-b]pyridin-7-yl)-benzylamide]	10 to 100			
CC(C)(C)C1CCN(C(=O)NCc2ccc(-c3ccnc4[nH]c(=O)[nH]c34)cc2F)C1 (centres unmarked) [Compound 5, 3-tert-Butyl-pyrrolidine-1-carboxylic Acid 2-fluoro-4-(2-oxo-2,3-dihydro-1H-imidazo[4,5-b]pyridin-7-yl)-benzylamide]	10 to 100			
CC(C)(C)c1nnc(C(=O)NCc2ccc(-c3ccnc4[nH]c(=O)[nH]c34)cc2F)o1 [Compound 7, 5-tert-Butyl-[1,3,4]oxadiazole-2-carboxylic Acid 2-fluoro-4-(2-oxo-2,3-dihydro-1H-imidazo[4,5-b]pyridin-7-yl)-benzylamide]	100 to 1000			
CC(C)(C)c1ccc(C(=O)NCc2ccc(-c3ccnc4[nH]c(=O)[nH]c34)cc2F)cn1 [Compound 8, 6-tert-Butyl-N-[2-fluoro-4-(2-oxo-2,3-dihydro-1H-imidazo[4,5-b]pyridin-7-yl)-benzyl]-nicotinamide]	> 1000			
CC(C)(O)c1ccc(C(=O)NCc2ccc(-c3ccnc4[nH]c(=O)[nH]c34)cc2F)cc1 [Compound 9, N-[2-Fluoro-4-(2-oxo-2,3-dihydro-1H-imidazo[4,5-b]pyridin-7-yl)-benzyl]-4-(1-hydroxy-1-methyl-ethyl)-benzamide]	> 1000			
CC(C)(C)c1noc(C(=O)NC2CCCCc3cc(-c4ccnc5[nH]c(=O)[nH]c45)ccc32)n1 (centres unmarked) [Compound 11, 3-tert-Butyl-[1,2,4]oxadiazole-5-carboxylic Acid [2-(2-oxo-2,3-dihydro-1H-imidazo[4,5-b]pyridin-7-yl)-6,7,8,9-tetrahydro-5H-benzocyclohepten-5-yl]-amide]	< 10			10 to 100
CC(C)(C)c1noc(C(=O)NC2CCCCc3cc(-c4ccnc5[nH]c(=O)[nH]c45)ccc32)n1 (centres unmarked) [Compound 12, 3-tert-Butyl-[1,2,4]oxadiazole-5-carboxylic Acid [2-(2-oxo-2,3-dihydro-1H-imidazo[4,5-b]pyridin-7-yl)-6,7,8,9-tetrahydro-5H-benzocyclohepten-5-yl]-amide]	< 10		< 10	
CC(C)(C)c1cc(C(=O)NC2CCCCc3cc(-c4ccnc5[nH]c(=O)[nH]c45)ccc32)on1 (centres unmarked) [Compound 14, Butyl-isoxazole-5-carboxylic Acid [2-(2-oxo-2,3-dihydro-1H-imidazo[4,5-b]pyridin-7-yl)-6,7,8,9-tetrahydro-5H-benzocyclohepten-5-yl]-amide]			100 to 1000	
Cc1cc(-c2ccnc3[nH]c(=O)[nH]c23)c(F)cc1CNC(=O)c1nc(C(C)(C)C)no1 [Compound 16, 3-tert-Butyl-[1,2,4]oxadiazole-5-carboxylic Acid 5-fluoro-2-methyl-4-(2-oxo-2,3-dihydro-1H-imidazo[4,5-b]pyridin-7-yl)-benzylamide]	< 10		100 to 1000	
CC(C)(C)c1nc(C(=O)NCc2ccc(-c3ccnc4[nH]c(=O)[nH]c34)cc2C(F)(F)F)no1 [Compound 19, 5-tert-Butyl-[1,2,4]oxadiazole-3-carboxylic Acid 4-(2-oxo-2,3-dihydro-1H-imidazo[4,5-b]pyridin-7-yl)-2-trifluoromethyl-benzylamide]	< 10			
CC1(C)Cc2cc3n(c2C1)CCN(c1cc(F)cc(-c2ccnc4[nH]c(=O)[nH]c24)c1CO)C3=O [Compound 21, 2-[5-Fluoro-2-hydroxymethyl-3-(2-oxo-2,3-dihydro-1H-imidazo[4,5-b]pyridin-7-yl)-phenyl]-7,7-dimethyl-3,4,7,8-tetrahydro-2H,6H-cyclopenta[4,5]pyrrolo[1,2-a]pyrazin-1-one]	< 10			
CC1(C)Cc2cc3n(c2C1)CCN(c1cc(F)cc(-c2ccnc4[nH]c(=O)[nH]c24)c1)C3=O [Compound 22, 2-[3-Fluoro-5-(2-oxo-2,3-dihydro-1H-imidazo[4,5-b]pyridin-7-yl)-phenyl]-7,7-dimethyl-3,4,7,8-tetrahydro-2H,6H-cyclopenta[4,5]pyrrolo[1,2-a]pyrazin-1-one]	10 to 100			
Cc1cc(-c2ccnc3[nH]c(=O)[nH]c23)ccc1CNC(=O)c1nc(C(C)(C)C)no1 [Compound 23, 3-tert-Butyl-[1,2,4]oxadiazole-5-carboxylic Acid 2-methyl-4-(2-oxo-2,3-dihydro-1H-imidazo[4,5-b]pyridin-7-yl)-benzylamide]	< 10	10 to 100	10 to 100	
